Tested on: sheep liver fluke (Fasciola hepatica)
Assay: Fluke egg count in faeces and adult fluke count in liver of infected sheep after a single s/c dose (Table 3)
Assay type: in vivo
Details: for POST MORTEM RESULT No. of adult fluke: liver
Experimental: Compositions suitable for use as experimental injectable solutions were prepared by formulating the compounds as solutions of their salts either in water or in a mixture of water and ethylene glycol or water and polyethylene glycol (PEG200).
Compositions prepared by the method of Example 10 were used as a single dose to test sheep infected with sheep liver fluke (Fasciola hepatica). The number of liver fluke eggs in the faeces was measured at the time of treatment and at selected intervals up to 30 days after treatment. The sheep were killed and the number of adult fluke in the liver counted. The amount and structure of the active ingredient in each composition and the results of treatment of a sheep with that composition are given in the Table 3 below. The compositions were administered by sub-cutaneous injection (s/c).

| SMILES | FAECAL EGG COUNT, day 7 (single dose 12.0 mg/kg) [Eggs/g faeces] | FAECAL EGG COUNT, day 14 (single dose 12.0 mg/kg) [Eggs/g faeces] | POST MORTEM RESULT No. of adult fluke (single dose 12.0 mg/kg) | FAECAL EGG COUNT, day 7 (single dose 12.5 mg/kg) [Eggs/g faeces] | FAECAL EGG COUNT, day 14 (single dose 12.5 mg/kg) [Eggs/g faeces] | also measured |
| --- | --- | --- | --- | --- | --- | --- |
| O=[N+]([O-])c1cc(Cl)cc(C(Sc2ccc(Cl)cc2)c2cc(Cl)cc([N+](=O)[O-])c2O)c1O [Compound 51] | 10 | 0 | 0 |  |  |  |
| O=[N+]([O-])c1cc(Cl)cc(C(c2cc(Cl)cc([N+](=O)[O-])c2O)C(Cl)(Cl)Cl)c1O [Compound 11] |  |  |  |  |  | FAECAL EGG COUNT, day 7 (single dose 5.0 mg/kg): 50 Eggs/g faeces; FAECAL EGG COUNT, day 14 (single dose 5.0 mg/kg): 0 Eggs/g faeces; POST MORTEM RESULT No. of adult fluke (single dose 5.0 mg/kg): 0 |
| CCCSC(c1cc(Cl)cc([N+](=O)[O-])c1O)c1cc(Cl)cc([N+](=O)[O-])c1O [Compound 45] | 10 | 0 | 1 |  |  |  |
| O=[N+]([O-])c1cc(Cl)cc(C(Sc2ccccc2)c2cc(Cl)cc([N+](=O)[O-])c2O)c1O [Compound 50] | 100 | 0 | 0 |  |  |  |
| CCC(C)SC(c1cc(Cl)cc([N+](=O)[O-])c1O)c1cc(Cl)cc([N+](=O)[O-])c1O (stereo not drawn) [Compound 47] | 10 | 30 |  |  |  |  |
| CC(c1cc(Br)cc([N+](=O)[O-])c1O)c1cc(Br)cc([N+](=O)[O-])c1O [Compound 9] |  |  |  | 0 | 0 | POST MORTEM RESULT No. of adult fluke (single dose 12.5 mg/kg): 0 |
| O=[N+]([O-])c1cc(Cl)cc(C(OCc2cccc(F)c2)c2cc(Cl)cc([N+](=O)[O-])c2O)c1O [Compound 37] |  |  |  |  |  | FAECAL EGG COUNT, day 7 (single dose 6.0 mg/kg): 0 Eggs/g faeces; FAECAL EGG COUNT, day 14 (single dose 6.0 mg/kg): 0 Eggs/g faeces; POST MORTEM RESULT No. of adult fluke (single dose 6.0 mg/kg): 2 |
| O=[N+]([O-])c1cc(F)cc(C(=C(Cl)Cl)c2cc(F)cc([N+](=O)[O-])c2O)c1O [Compound 16] |  |  |  | 10 | 10 | POST MORTEM RESULT No. of adult fluke (single dose 12.5 mg/kg): 0 |
| CCOC(c1cc(Cl)cc([N+](=O)[O-])c1O)c1cc(Cl)cc([N+](=O)[O-])c1O [Compound 26] |  |  |  |  |  | FAECAL EGG COUNT, day 7 (single dose 6.0 mg/kg): 130 Eggs/g faeces; FAECAL EGG COUNT, day 14 (single dose 6.0 mg/kg): 10 Eggs/g faeces; POST MORTEM RESULT No. of adult fluke (single dose 6.0 mg/kg): 0 |
| O=[N+]([O-])c1cc(Cl)cc(Cc2cc(Br)cc([N+](=O)[O-])c2O)c1O [Compound 3] |  |  |  | 0 | 0 | POST MORTEM RESULT No. of adult fluke (single dose 12.5 mg/kg): 1 |
| CC(C)(c1cc(F)cc([N+](=O)[O-])c1O)c1cc(Cl)cc([N+](=O)[O-])c1O [Compound 20, 2-(5-chloro-2-hydroxy-3-nitrophenyl)-2-(5-fluoro-2-hydroxy-3-nitrophenyl)propane] |  |  |  | 400 | 140 |  |
| CC(c1cc(Br)cc([N+](=O)[O-])c1O)c1cc(I)cc([N+](=O)[O-])c1O (stereo not drawn) [Compound 10] |  |  |  | 10 | 90 |  |
| COC(=O)Oc1c(C(=C(Cl)Cl)c2cc(Cl)cc([N+](=O)[O-])c2OC(=O)OC)cc(Cl)cc1[N+](=O)[O-] [Compound 18] | 60 | 0 | 1 |  |  |  |

Reference: patent US4251546A, “Process for killing internal helminths using certain 1,1-bis-(2-substituted-3-nitrophenyl)alkane or alkylene derivatives” (ICI Australia Limited, priority 1977, dated 1981)
